Measurements published in BindingDB's records for patent US20250034135 (Hangzhou Healzen Therapeutics Co., 2025).
pIC50: −log10 of the molar value.

Legend:
[1] = biological target: Apoptosis regulator Bcl-2 (Homo sapiens, UniProt P10415); assay: Molecular Level Activity Test of Anti-Apoptotic Protein BCL2
Procedure: (§1) The detection of the binding ability between anti-apoptotic protein BCL2 and pro-apoptotic protein Bim was performed using Homogeneous Time-Resolved Fluorescence technology. The reaction of this method occurred in a white shallow 384-well plate, with a total reaction volume of 10 μL. Specifically, it included 2 μL of the compound to be tested (2% DMSO), 4 μL His-tagged recombinant protein, and 4 μL Biotin-tagged BIM protein peptide. After 1 hour of reaction, 5 μL of each Anti-His and streptavidin-tagged XL665 antibody diluents diluted with a detection buffer were added. After incubating at room temperature for 4 hours, the values were read using the Envision multifunctional microplate reader to detect the effect of the compound to be tested on the binding ability of BCL2 to Bim protein peptides. The Envision parameter settings were exciting light at 320 nm, and emitting light at 615 nm and 665 nm. The binding ability of anti-apoptotic proteins to Bim protein peptides was indirectly reflected by the signal ratio of 665 nm and 615 nm. In the reaction, background wells without BCL2 and active wells for full binding of recombinant proteins without compounds and Bim protein peptides were set up.

[2] = biological target: Apoptosis regulator Bcl-2 [G101V] (Homo sapiens, UniProt P10415, G101V); assay: Molecular Level Activity Test of Anti-Apoptotic Protein BCL2 (G101V)
Procedure: as §1, with “protein BCL2 (G101V) and pro-apoptotic” for “protein BCL2 and pro-apoptotic”, “reaction, 5 L of each” for “reaction, 5 μL of each”, “of BCL2 (G101V) to BIM” for “of BCL2 to Bim”, “(G101V) to BIM protein peptides.” for “BCL2 to Bim protein peptides.”

[3] = biological target: Isoform Bcl-X(L) of Bcl-2-like protein 1 (Bcl-xL) (Homo sapiens, UniProt Q07817); assay: BCL-XL Enzyme Molecular Level Activity Test
Sequence of Isoform Bcl-X(L) of Bcl-2-like protein 1 (Bcl-xL) (Q07817 whole entry G70A, canonical isoform): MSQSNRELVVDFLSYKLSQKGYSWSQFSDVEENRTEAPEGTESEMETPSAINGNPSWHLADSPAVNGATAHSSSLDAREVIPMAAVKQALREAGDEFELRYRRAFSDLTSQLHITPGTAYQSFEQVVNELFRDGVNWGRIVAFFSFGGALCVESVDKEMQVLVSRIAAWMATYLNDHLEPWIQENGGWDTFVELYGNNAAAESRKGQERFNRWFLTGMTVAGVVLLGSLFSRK
Procedure: as §1, with “In a white” for “The detection of the binding ability between anti-apoptotic protein BCL2 and pro-apoptotic protein Bim was performed using Homogeneous Time-Resolved Fluorescence technology. The reaction of this method occurred in a white”, “384-well plate, a total” for “384-well plate, with a total”, “reaction volume was 10 μL.” for “reaction volume of 10 μL.”, “DMSO), […] His-tagged recombinant” for “DMSO), 4 μL His-tagged recombinant”, “ability of BCL-XL to BIM” for “ability of BCL2 to Bim”, “BCL-XL to BIM protein peptides.” for “BCL2 to Bim protein peptides.”

[4] = biological target: CYP3A4 (Homo sapiens, UniProt P08684); assay: CYP3A4 Enzyme Inhibitory Activity; conditions: recombinant CYP3A4 (CYP450 BACULOSOMES Plus reagent), probe Vivid substrate (Vivid CYP3A4 Green kit)
Sequence of CYP3A4 (P08684 whole entry): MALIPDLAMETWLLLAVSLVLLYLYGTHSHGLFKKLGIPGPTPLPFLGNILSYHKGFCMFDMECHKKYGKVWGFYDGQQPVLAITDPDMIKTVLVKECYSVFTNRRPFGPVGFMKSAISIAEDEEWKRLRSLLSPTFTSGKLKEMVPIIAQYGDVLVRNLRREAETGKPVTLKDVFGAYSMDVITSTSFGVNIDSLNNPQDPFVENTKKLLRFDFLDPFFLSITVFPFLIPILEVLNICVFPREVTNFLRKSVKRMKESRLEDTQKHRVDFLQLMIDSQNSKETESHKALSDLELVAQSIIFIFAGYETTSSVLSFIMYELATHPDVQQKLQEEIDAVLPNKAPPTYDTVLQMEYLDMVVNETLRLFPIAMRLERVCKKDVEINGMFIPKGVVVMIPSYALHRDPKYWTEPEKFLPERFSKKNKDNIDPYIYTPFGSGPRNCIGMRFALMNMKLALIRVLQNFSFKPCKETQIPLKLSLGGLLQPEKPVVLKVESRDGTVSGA
Procedure: The inhibitory activity of compounds on human CYP3A4 enzyme was detected using a VIVID™ CYP3A4 GREEN SCRNING KIT reagent kit. The Vivid™ CYP450 screening kit includes a Vivid™ substrate, Vivid™ fluorescence standard, reaction buffer, Vivid™ regeneration system, NADP+ and CYP450 BACULOSOMES™ Plus reagent. Operations were performed following the instructions, and a blank control group was set up without adding any compounds.

Compound | pIC50 [1] | pIC50 [3] | further results
CC(C)c1ccccc1[C@@H]1CCCN1C1CC2(CCN(c3ccc(C(=O)NS(=O)(=O)c4cc([N+](=O)[O-])c(NCC5(F)CCN(C(C)C)CC5)c5c4ncn5C)c(Oc4cnc5[nH]ccc5c4)c3)CC2)C1 [US20250034135, Compound 008] | > 8.00 |  | 
CC(C)c1ccccc1[C@@H]1CCCN1C1CC2(CCN(c3ccc(C(=O)NS(=O)(=O)c4cc([N+](=O)[O-])c(NCC5(F)CCN(C6COC6)CC5)c5[nH]cnc45)c(Oc4cnc5[nH]cc(F)c5c4)c3)CC2)C1 [US20250034135, Compound 012] | > 8.00 |  | 
CC(C)c1ccccc1[C@@H]1CCCN1C1CC2(CCN(c3cc(Oc4cnc5[nH]ccc5c4)c(C(=O)NS(=O)(=O)c4cc([N+](=O)[O-])c(NCC5(F)CCN(C6COC6)CC5)c5[nH]cnc45)cc3F)CC2)C1 [US20250034135, Compound 020] | > 8.00 |  | 
CC(C)c1ccccc1[C@@H]1CCCN1C1CC2(CCN(c3cc(Oc4cnc5[nH]ccc5c4)c(C(=O)NS(=O)(=O)c4cc([N+](=O)[O-])c(NCC5(F)CCN(C6COC6)CC5)c5c4ncn5C)cc3F)CC2)C1 [US20250034135, Compound 036] | > 8.00 |  | 
CC(C)c1ccccc1[C@@H]1CCCN1C1CC2(CCN(c3cc(Oc4cnc5[nH]cc(F)c5c4)c(C(=O)NS(=O)(=O)c4cc([N+](=O)[O-])c(NCC5(F)CCN(C6COC6)CC5)c5[nH]cnc45)cc3F)CC2)C1 [US20250034135, Compound 038] | > 8.00 |  | 
COc1ccc(CN2CCN(C3CC4(CCN(c5cc(Oc6cnc7[nH]ccc7c6)c(C(=O)NS(=O)(=O)c6ccc(NCC7(F)CCN(C8COC8)CC7)c([N+](=O)[O-])c6)cc5F)CC4)C3)C(c3ccccc3C(C)C)C2)cc1 (stereo unspecified) [US20250034135, Compound 057] | > 8.00 |  | 
COc1ccc(CN2CCN(C3CC4(C3)CN(c3cc(Oc5cnc6[nH]ccc6c5)c(C(=O)NS(=O)(=O)c5ccc(NCC6(F)CCN(C7COC7)CC6)c([N+](=O)[O-])c5)cc3F)C4)C(c3ccccc3C(C)C)C2)cc1 (stereo unspecified) [US20250034135, Compound 058] |  | < 6.00 | pIC50 [2]: > 8.00
COc1ccc(CN2CCN(C3CC4(CCN(c5ccc(C(=O)NS(=O)(=O)c6ccc(NC[C@H]7CC[C@](C)(O)CC7)c([N+](=O)[O-])c6)c(OC(C=N)Cc6cc[nH]c6)c5)CC4)C3)[C@H](c3ccccc3C(C)C)C2)cc1 (stereo partly specified) [US20250034135, Compound a] |  |  | pIC50 [4]: 5.59

The next lines start with results.

pIC50 [1] | pIC50 [3] | Compound | further results
> 8.00 | < 6.30 | COc1ccccc1CN1CCN(C2CC3(CCN(c4cc(Oc5cnc6[nH]ccc6c5)c(C(=O)NS(=O)(=O)c5ccc(NCC6(F)CCOCC6)c([N+](=O)[O-])c5)cc4F)CC3)C2)[C@H](c2ccccc2C(C)C)C1 [US20250034135, Compound 185] | 
> 8.00 | < 6.30 | CC(C)c1ccccc1[C@@H]1CN(Cc2ccccc2F)CCN1C1CC2(CCN(c3cc(Oc4cnc5[nH]ccc5c4)c(C(=O)NS(=O)(=O)c4ccc(NCC5(F)CCOCC5)c([N+](=O)[O-])c4)cc3F)CC2)C1 [US20250034135, Compound 187] | 
> 8.00 |  | CC(C)c1ccccc1[C@@H]1CN(Cc2ccc(F)cc2F)CCN1C1CC2(CCN(c3cc(Oc4cnc5[nH]ccc5c4)c(C(=O)NS(=O)(=O)c4ccc(NCC5(F)CCOCC5)c([N+](=O)[O-])c4)cc3F)CC2)C1 [US20250034135, Compound 191] | 
> 8.00 |  | CC(C)c1ccccc1[C@@H]1CN(Cc2c(F)cccc2F)CCN1C1CC2(CCN(c3cc(Oc4cnc5[nH]ccc5c4)c(C(=O)NS(=O)(=O)c4ccc(NCC5(F)CCOCC5)c([N+](=O)[O-])c4)cc3F)CC2)C1 [US20250034135, Compound 192] | 
 | < 6.30 | CC(C)c1ccccc1[C@@H]1CN(Cc2cnn(C)c2)CCN1C1CC2(CCN(c3cc(Oc4cnc5[nH]ccc5c4)c(C(=O)NS(=O)(=O)c4ccc(NC[C@H]5CC[C@](C)(O)CC5)c([N+](=O)[O-])c4)cc3F)CC2)C1 [US20250034135, Compound 238] | 
